US9315490B2, “2,5-substituted pyrimidines” (Grünenthal GmbH, priority 2014, dated 2016)

biological target: T1, human PDE4B1 (Homo sapiens, UniProt Q07343); test: cAMP HTRF assay to determine the activity of hPDE4B1; format: biochemical; conditions: inhibition of PDE4B at a test concentration of 1 μM
T1 construct: host or cells: Sf9 cells
How it was run: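 Human recombinant PDE4B1 from Sf9 cells (4.8 U) in Tris-HCl, MgCl2, DTT, Tween 20 buffer at pH 7.8 with 40 nM cAMP (final), 30 min at room temperature. Reaction stopped with 1 mM IBMX; remaining cAMP detected by HTRF (665/620 nm ratio). IC50 from eight-concentration curves.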

T1 sequence (Q07343 whole entry): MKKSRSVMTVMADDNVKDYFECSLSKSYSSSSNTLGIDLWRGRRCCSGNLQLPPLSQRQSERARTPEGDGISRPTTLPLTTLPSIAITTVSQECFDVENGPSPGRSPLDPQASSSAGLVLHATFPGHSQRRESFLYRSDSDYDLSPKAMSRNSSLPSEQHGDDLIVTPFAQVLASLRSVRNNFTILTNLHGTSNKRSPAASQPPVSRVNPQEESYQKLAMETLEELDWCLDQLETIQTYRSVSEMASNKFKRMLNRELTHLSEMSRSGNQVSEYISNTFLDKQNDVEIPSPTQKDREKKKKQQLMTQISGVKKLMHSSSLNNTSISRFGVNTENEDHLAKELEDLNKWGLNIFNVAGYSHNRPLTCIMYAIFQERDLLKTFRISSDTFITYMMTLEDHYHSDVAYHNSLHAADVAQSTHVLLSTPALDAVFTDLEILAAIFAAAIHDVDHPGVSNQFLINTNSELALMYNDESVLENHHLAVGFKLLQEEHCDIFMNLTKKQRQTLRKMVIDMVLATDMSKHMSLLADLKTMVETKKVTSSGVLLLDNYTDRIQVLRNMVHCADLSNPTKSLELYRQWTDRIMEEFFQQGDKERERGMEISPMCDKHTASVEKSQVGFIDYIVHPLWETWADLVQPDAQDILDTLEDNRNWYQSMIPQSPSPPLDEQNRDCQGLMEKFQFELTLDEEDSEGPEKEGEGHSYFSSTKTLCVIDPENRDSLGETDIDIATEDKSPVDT

Q: Which inhibition at 1 µM does the source give for `C[S+]([O-])c1cn(-c2ncc(-c3cc(C#N)ccc3F)cn2)c2cc(C(=O)N3CCOCC3)ccc12` (stereo not drawn) [Example 2, 4-Fluoro-3-(2-(3-(methylsulfinyl)-6-(morpholine-4-carbonyl)-1H-indol-1yl)pyrimidin-5-yl)benzonitrile] here?
A: 98%

Q: Which inhibition at 1 µM does the source give for `C[S+]([O-])c1cn(-c2ncc(-c3ccccc3Cl)cn2)c2cc(C(=O)N3CCOCC3)ccc12` (stereo not drawn) [Example 3, (1-(5-(2-Chlorophenyl)pyrimidin-2-yl)-3-(methylsulfinyl)-1H-indol-6-yl)(morpholino) methanone] here?
A: 98%

Q: Which inhibition at 1 µM does the source give for `C[S+]([O-])c1cn(-c2ncc(-c3ccccc3)cn2)c2cc(C(=O)N3CCOCC3)ccc12` (stereo not drawn) [Example 4, (3-(Methylsulfinyl)-1-(5-phenylpyrimidin-2-yl)-1H-indol-6-yl)(morpholino) methanone] here?
A: 82%

Q: With `CS(=O)(=O)c1cn(-c2ncc(-c3ccc(F)cc3F)cn2)c2cc(C(=O)N3CCOCC3)ccc12` [Example 6, (1-(5-(2,4-Difluorophenyl)pyrimidin-2-yl)-3-(methylsulfonyl)-1H-indol-6-yl)(morpholino)methanone] as the molecule, how does the inhibition at 1 µM read?
A: 88%

Q: With `CS(=O)(=O)c1cn(-c2ncc(-c3ccc(C(N)=O)cc3F)cn2)c2cc(C(=O)N3CCOCC3)ccc12` [Example 7, 3-Fluoro-4-(2-(3-(methylsulfonyl)-6-(morpholine-4-carbonyl)-1H-indol-1-yl)pyrimidin-5-yl)benzamide] as the molecule, how does the inhibition at 1 µM read?
A: 88%

Q: For `CS(=O)(=O)c1cn(-c2ncc(-c3ccccc3C#N)cn2)c2cc(C(=O)N3CCOCC3)ccc12` [Example 8, 2-(2-(3-(Methylsulfonyl)-6-(morpholine-4-carbonyl)-1H-indol-1-yl)pyrimidin-5-yl)benzonitrile], which inhibition at 1 µM is on record?
A: 50%

system: not given; test: not given; conditions: not given

Q: For `C[S+]([O-])c1cn(-c2ncc(-c3cc(C#N)ccc3F)cn2)c2cc(C(=O)N3CCOCC3)ccc12` (stereo not drawn) [Example 2, 4-Fluoro-3-(2-(3-(methylsulfinyl)-6-(morpholine-4-carbonyl)-1H-indol-1yl)pyrimidin-5-yl)benzonitrile], which melting point is on record?
A: 262 to 266 °C

Q: For `C[S+]([O-])c1cn(-c2ncc(-c3ccccc3Cl)cn2)c2cc(C(=O)N3CCOCC3)ccc12` (stereo not drawn) [Example 3, (1-(5-(2-Chlorophenyl)pyrimidin-2-yl)-3-(methylsulfinyl)-1H-indol-6-yl)(morpholino) methanone], which melting point is on record?
A: 226 to 230 °C

Q: Which melting point does the source give for `C[S+]([O-])c1cn(-c2ncc(-c3ccccc3)cn2)c2cc(C(=O)N3CCOCC3)ccc12` (stereo not drawn) [Example 4, (3-(Methylsulfinyl)-1-(5-phenylpyrimidin-2-yl)-1H-indol-6-yl)(morpholino) methanone] here?
A: 239 to 242 °C

Q: With `CS(=O)(=O)c1cn(-c2ncc(-c3ccc(F)cc3F)cn2)c2cc(C(=O)N3CCOCC3)ccc12` [Example 6, (1-(5-(2,4-Difluorophenyl)pyrimidin-2-yl)-3-(methylsulfonyl)-1H-indol-6-yl)(morpholino)methanone] as the molecule, how does the melting point read?
A: 247 to 252 °C

Q: For `CS(=O)(=O)c1cn(-c2ncc(-c3ccc(C(N)=O)cc3F)cn2)c2cc(C(=O)N3CCOCC3)ccc12` [Example 7, 3-Fluoro-4-(2-(3-(methylsulfonyl)-6-(morpholine-4-carbonyl)-1H-indol-1-yl)pyrimidin-5-yl)benzamide], which melting point is on record?
A: 263 to 266 °C

Q: Which melting point does the source give for `CS(=O)(=O)c1cn(-c2ncc(-c3ccccc3C#N)cn2)c2cc(C(=O)N3CCOCC3)ccc12` [Example 8, 2-(2-(3-(Methylsulfonyl)-6-(morpholine-4-carbonyl)-1H-indol-1-yl)pyrimidin-5-yl)benzonitrile] here?
A: 265 to 269 °C

Q: With `C[S+]([O-])c1cn(-c2ncc(-c3ccccc3C#N)cn2)c2cc(C(=O)N3CCNCC3)ccc12` (stereo not drawn) [Example 16, 2-(2-(3-(Methylsulfinyl)-6-(piperazine-1-carbonyl)-1H-indol-1-yl)pyrimidin-5-yl)benzonitrile] as the molecule, how does the melting point read?
A: 230 to 235 °C

Q: Which melting point does the source give for `CS(=O)(=O)c1cn(-c2ncc(-c3ccc(F)cc3F)cn2)c2cc(C(=O)N3CCNCC3)ccc12` [Example 23, (1-(5-(2,4-Difluorophenyl)pyrimidin-2-yl)-3-(methylsulfonyl)-1H-indol-6-yl)(piperazin-1-yl)methanone] here?
A: 229 to 233 °C

Q: For `CS(=O)(=O)c1cn(-c2ncc(-c3ccccc3C#N)cn2)c2cc(C(=O)N3CCNCC3)ccc12` [Example 25, 2-(2-(3-(Methylsulfonyl)-6-(piperazine-1-carbonyl)-1H-indol-1-yl)pyrimidin-5-yl)benzonitrile], which melting point is on record?
A: 193 to 197 °C

Q: Which melting point does the source give for `C[S+]([O-])c1cn(-c2ncc(-c3ncc(C#N)s3)cn2)c2cc(C(=O)N3CCOCC3)ccc12` (stereo not drawn) [Example 207, 2-(2-(3-(Methylsulfinyl)-6-(morpholine-4-carbonyl)-1H-indol-1-yl)pyrimidin-5-yl)thiazole-5-carbonitrile] here?
A: 280 to 283 °C

biological target: T1, human PDE4B1; test: TR-FRET assay using the LANCE Ultra cAMP kit to determine the activity of hPDE4B1; format: biochemical; conditions: test concentration 1 μM, read-out: Inhibition in % (inhibition of PDE4B)
How it was run: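 Sf9-expressed recombinant human PDE4B1 (0.96 U) hydrolyses 500 nM cAMP for 30 minutes at room temperature in 50 mM Tris-HCl, 50 mM MgCl2, 5 mM DTT, pH 8.5. The reaction is stopped with IBMX, and residual cAMP is measured by TR-FRET (665/620 ratio). IC50 comes from ten concentrations.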

Q: With `CC(C)c1ccnc(-c2cnc(-n3cc(S(C)(=O)=O)c4ccc(C(=O)N5CCOCC5)cc43)nc2)c1` [Example 324, (1-(5-(4-Isopropylpyridin-2-yl)pyrimidin-2-yl)-3-(methylsulfonyl)-1H-indol-6-yl)(morpholino)methanone] as the molecule, how does the inhibition at 1 µM read?
A: 76%

Q: Which inhibition at 1 µM does the source give for `CCOc1ccc(F)c(-c2cnc(-n3cc(S(C)(=O)=O)c4ccc(C(=O)N5CCOCC5)cc43)nc2)c1` [Example 326, (1-(5-(5-Ethoxy-2-fluorophenyl)pyrimidin-2-yl)-3-(methylsulfonyl)-1H-indol-6-yl)(morpholino)methanone] here?
A: 98%

Q: Which inhibition at 1 µM does the source give for `Cc1ccc(F)c(-c2cnc(-n3cc(S(C)(=O)=O)c4ccc(C(=O)N5CCOCC5)cc43)nc2)c1` [Example 350, (1-(5-(2-Fluoro-5-methylphenyl)pyrimidin-2-yl)-3-(methylsulfonyl)-1H-indol-6-yl)(morpholino)methanone] here?
A: 93%

Q: With `Cc1ccnc(-c2cnc(-n3cc(S(C)(=O)=O)c4ccc(C(=O)N5CCOCC5)cc43)nc2)c1` [Example 353, (1-(5-(4-Methylpyridin-2-yl)pyrimidin-2-yl)-3-(methylsulfonyl)-1H-indol-6-yl)(morpholino)methanone] as the molecule, how does the inhibition at 1 µM read?
A: 54%

same assay, conditions: test concentration 10 μM (marked in cell), read-out: Inhibition in % (inhibition of PDE4B)

Q: For `Cc1ccnc(-c2cnc(-n3cc(C(C)O)c4ccc(C(=O)N5CCOCC5)cc43)nc2)c1` (stereo not drawn) [Example 318, (3-(1-Hydroxyethyl)-1-(5-(4-methylpyridin-2-yl)pyrimidin-2-yl)-1H-indol-6-yl)(morpholino)methanone], which inhibition at 10 µM is on record?
A: 96%

Q: For `CCOc1ccc(F)c(-c2cnc(-n3cc(C(C)O)c4ccc(C(=O)N5CCOCC5)cc43)nc2)c1` (stereo not drawn) [Example 319, (1-(5-(5-Ethoxy-2-fluorophenyl)pyrimidin-2-yl)-3-(1-hydroxyethyl)-1H-indol-6-yl)(morpholino)methanone], which inhibition at 10 µM is on record?
A: 99%

Q: For `Cc1ccc(F)c(-c2cnc(-n3cc(C(C)O)c4ccc(C(=O)N5CCOCC5)cc43)nc2)c1` (stereo not drawn) [Example 320], which inhibition at 10 µM is on record?
A: 109%

Q: For `Cc1ccc(F)c(-c2cnc(-n3cc(C(C)O)c4ccc(C(=O)N5CC[C@@H](N)C5)cc43)nc2)c1` (stereo partly drawn) [Example 321, ((R)-3-Aminopyrrolidin-1-yl)(1-(5-(2-fluoro-5-methylphenyl)pyrimidin-2-yl)-3-(1-hydroxyethyl)-1H-indol-6-yl)methanone], which inhibition at 10 µM is on record?
A: 143%

Q: For `Cc1ccc(F)c(-c2cnc(-n3cc(C(C)O)c4ccc(C(=O)N(C)C)cc43)nc2)c1` (stereo not drawn) [Example 322, 1-(5-(2-Fluoro-5-methylphenyl)pyrimidin-2-yl)-3-(1-hydroxyethyl)-N,N-dimethyl-1H-indole-6-carboxamide], which inhibition at 10 µM is on record?
A: 100%

Q: Which inhibition at 10 µM does the source give for `Cc1ccc(F)c(-c2cnc(-n3cc(C(C)O)c4ccc(C(=O)N(C)CC(N)=O)cc43)nc2)c1` (stereo not drawn) [Example 323, N-(2-Amino-2-oxoethyl)-1-(5-(2-fluoro-5-methylphenyl)pyrimidin-2-yl)-3-(1-hydroxyethyl)-N-methyl-1H-indole-6-carboxamide] here?
A: 103%

Q: For `CCc1ccnc(-c2cnc(-n3cc(S(C)(=O)=O)c4ccc(C(=O)N5CCOCC5)cc43)nc2)c1` [Example 325, (1-(5-(4-Ethylpyridin-2-yl)pyrimidin-2-yl)-3-(methylsulfonyl)-1H-indol-6-yl)(morpholino)methanone], which inhibition at 10 µM is on record?
A: 91%

Q: Which inhibition at 10 µM does the source give for `CS(=O)(=O)c1cn(-c2ncc(-c3cc(C4CC4)ccn3)cn2)c2cc(C(=O)N3CCOCC3)ccc12` [Example 327, (1-(5-(4-Cyclopropylpyridin-2-yl)pyrimidin-2-yl)-3-(methylsulfonyl)-1H-indol-6-yl)(morpholino)methanone] here?
A: 90%

Q: With `Cc1ccc(F)c(-c2cnc(-n3cc(S(C)(=O)=O)c4ccc(C(=O)N(C)CC(N)=O)cc43)nc2)c1` [Example 328, N-(2-Amino-2-oxoethyl)-1-(5-(2-fluoro-5-methylphenyl)pyrimidin-2-yl)-N-methyl-3-(methylsulfonyl)-1H-indole-6-carboxamide] as the molecule, how does the inhibition at 10 µM read?
A: 89%

Q: With `CCc1ccc(F)c(-c2cnc(-n3cc(C(C)O)c4ccc(C(=O)N(C)CC(N)=O)cc43)nc2)c1` (stereo not drawn) [Example 331, N-(2-Amino-2-oxoethyl)-1-(5-(5-ethyl-2-fluorophenyl)pyrimidin-2-yl)-3-(1-hydroxyethyl)-N-methyl-1H-indole-6-carboxamide] as the molecule, how does the inhibition at 10 µM read?
A: 109%

Q: With `Cc1ccnc(-c2cnc(-n3cc(C(C)O)c4ccc(C(=O)N(C)CC(N)=O)cc43)nc2)c1` (stereo not drawn) [Example 332, N-(2-Amino-2-oxoethyl)-3-(1-hydroxyethyl)-N-methyl-1-(5-(4-methylpyridin-2-yl)pyrimidin-2-yl)-1H-indole-6-carboxamide] as the molecule, how does the inhibition at 10 µM read?
A: 82%

Q: With `Cc1ccnc(-c2cnc(-n3cc([S+](C)[O-])c4ccc(C(=O)N5CC[C@@H](N)C5)cc43)nc2)c1` (stereo partly drawn) [Example 336, ((R)-3-Aminopyrrolidin-1-yl)(1-(5-(4-methylpyridin-2-yl)pyrimidin-2-yl)-3-(methylsulfinyl)-1H-indol-6-yl)methanone] as the molecule, how does the inhibition at 10 µM read?
A: 64%

Q: For `C[S+]([O-])c1cn(-c2ncc(-c3cc(C4CC4)ccn3)cn2)c2cc(C(=O)N3CCCC3)ccc12` (stereo not drawn) [Example 341, (1-(5-(4-Cyclopropylpyridin-2-yl)pyrimidin-2-yl)-3-(methylsulfinyl)-1H-indol-6-yl)(pyrrolidin-1-yl)methanone], which inhibition at 10 µM is on record?
A: 108%

Q: Which inhibition at 10 µM does the source give for `COc1ccnc(-c2cnc(-n3cc([S+](C)[O-])c4ccc(C(=O)N5CCCC5)cc43)nc2)c1` (stereo not drawn) [Example 342, (1-(5-(4-Methoxypyridin-2-yl)pyrimidin-2-yl)-3-(methylsulfinyl)-1H-indol-6-yl)(pyrrolidin-1-yl)methanone] here?
A: 113%

Q: With `CCOc1ccnc(-c2cnc(-n3cc([S+](C)[O-])c4ccc(C(=O)N5CCCC5)cc43)nc2)c1` (stereo not drawn) [Example 343, (1-(5-(4-Ethoxypyridin-2-yl)pyrimidin-2-yl)-3-(methylsulfinyl)-1H-indol-6-yl)(pyrrolidin-1-yl)methanone] as the molecule, how does the inhibition at 10 µM read?
A: 100%

Q: With `CS(=O)(=O)c1cn(-c2ncc(-c3ccccc3F)cn2)c2cc(C(=O)N3C[C@H]4C[C@@H]3CO4)ccc12` [Example 349, (1R,4R)-2-Oxa-5-azabicyclo[2.2.1]heptan-5-yl(1-(5-(2-fluorophenyl)pyrimidin-2-yl)-3-(methylsulfonyl)-1H-indol-6-yl)methanone] as the molecule, how does the inhibition at 10 µM read?
A: 92%
